According to patent US5219872A, “Compounds of 1,2,5,6-tetrahydropyridin-3-carboxaldehyde oxime which are useful as cholinergic agents” (Roussel UCLAF, priority 1986, dated 1993):
Where a name gives a salt, the structure may show the parent alone. Read-outs that look alike come from different tables or passages of the source. Each block holds one compound with its values, some of them ahead of it.

Experiments:
[1] = Hypothermic activity (central cholinomimetic activity); format: in vivo; conditions: Mus musculus, read-out: Effective dose (-1° C.)
Protocol: (§1) Male mice (CD1 Charles Rivers) were used, weighing 25-30 g, fasting for 6 hours. The body temperature was noted by means of a thermo-couple, inserted in the rectum for about 1.5 cm and connected to an electric temperature indicator.
(§2) The degree of hypothermia was evaluated as the difference between the treated and the control animals, and the dose was determined which was necessary to reduce the body temperature by 1° C.

[2] = Duration of action: variations of the body temperature; format: in vivo, mouse; conditions: dose mg/kg: Example 3 0,15, 7 1,25
Protocol: as §1, §2
The duration of action of the products was evaluated using doses of equal ability to cause a reduction of body temperature of 1°-1,5° C.

Diarrhoea activity = conditions: rat, in vivo, po
Protocol: Male rats (CD1 Charles Rivers) were used, weighing 25-30 g, fasting for 6 hours. The compounds were administered by oral route, by means of an oesophagic probe, dissolved at 0.5% in methocel. The controls received only the vehicle (20 ml/Kg).
1: faeces moderately soft with or without formation of a halo of humidity
2: faeces moderately soft with formation of a well defined circle of humidity,
3: faeces soft, with formation of a large circle of humidity,
4: faeces without consistency with formation of a very large circle of humidity.

[3] = tested on: isolated ileum from guinea-pigs; test: Isolated guinea-pig ileum: contracting (agonist) activity; conditions: Cavia porcellus, read-out: pD2 (negative logarithm of the dose which produces 50% of the maximum effect) (converted)
Protocol: Sections of ileum were removed from guinea-pigs killed by decapitation. […] The contracting effect of the compounds was detected, with an isometric transducer connected to a recorder. The products under test were added at scalar concentrations between 1×10^-3 and 1×10^-8 moles.
The agonist activity was expressed in pD2 (negative logarithm of the dose which produces 50% of the maximum effect.)

[4] = tested on: patients having a memory defect; conditions: intravenous route; Sitaram 1978, Christie 1981; cited from earlier work
[5] = cited from earlier work
in vivo = conditions: rat, oral route, male rats CD1, fasting 16 hours, mortality in seven days
Protocol: Male rats (CD1 Charles Rivers) were used, weighing […], fasting for 16 hours. […] The mortality was checked in the seven days following the treatment.

[6] = tested on: isolated ileum from guinea-pigs (response induced with acetylcholine); test: Isolated guinea-pig ileum: antagonist activity against acetylcholine; conditions: Cavia porcellus; antagonist activity vs acetylcholine; Tyrode's solution 37° C.; products added between 1×10^-3 and 1×10^-8 moles; read-out: ED50 (dose inhibiting 50% of the maximum response induced with acetylcholine)
Protocol: ILEUM FROM GUINEA-PIGS Sections of ileum were removed from guinea-pigs killed by decapitation. The isolated ileum was suspended in a bath containing 10 ml of Tyrode's solution thermo-regulated at 37° C. and aerated with a mixture of O2 (95%) and CO2 (5%). The contracting effect of the compounds was detected, with an isometric transducer connected to a recorder. The products under test were added at scalar concentrations between 1×10^-3 and 1×10^-8 moles. The products endowed with contracting activity were checked against atropine or hexamethonium to establish whether the activity was of muscarine type or nicotine type. The possible antagonist activity of the products was tested against acetylcholine.

[7] = os, 0 minutes, 8 0,5, 10 0,5, arecoline HBr 200
[8] = os, 30 minutes, 8 0,5, 10 0,5, arecoline HBr 200, ** p < 0,01 vs controls (all values)
[9] = os, 60 minutes, 8 0,5, 10 0,5, arecoline HBr 200, ** p < 0,01 vs controls (all values)
[10] = os, 120 minutes, 8 0,5, 10 0,5, arecoline HBr 200, ** p < 0,01 for Example 7 only
[11] = os, 180 minutes, 8 0,5, 10 0,5, arecoline HBr 200
[12] = sc, 30 minutes, 8 1, 10 0,75, arecoline HBr 3,5, ** p < 0,01 vs controls (all values)
[13] = sc, 60 minutes, 8 1, 10 0,75, arecoline HBr 3,5, ** p < 0,01 for Examples 3, 7, 8, 10
[14] = sc, 120 minutes, 8 1, 10 0,75, arecoline HBr 3,5, ** p < 0,01 for Example 7 only
[15] = sc, 180 minutes, 8 1, 10 0,75, arecoline HBr 3,5
[16] = agonist activity, Tyrode's solution 37° C.
[17] = sc, sub-cutaneous, dose to reduce the body temperature by 1° C.
[18] = oral, dose to reduce the body temperature by 1° C.

Compound: COC(=O)C1=CCCN(C)C1 [Arecoline HBr, reference compound]
ED (-1 C) ([1]; po): 194 mg/kg
ED (-1 C) ([1]; sc): 3 mg/kg
variation of the body temperature [2, 7]: +0,1 °C
variation of the body temperature [2, 8]: -1,1 °C
variation of the body temperature [2, 9]: -1,0 °C
variation of the body temperature [2, 10]: -0,2 °C
variation of the body temperature [2, 11]: -0,1 °C
variation of the body temperature ([2]; sc, 0 minutes, 8 1, 10 0,75, arecoline HBr 3,5): -0,1 °C
variation of the body temperature [2, 12]: -1,5 °C
variation of the body temperature [2, 13]: -0,1 °C
variation of the body temperature [2, 14]: +0,2 °C
variation of the body temperature [2, 15]: +0,2 °C
ED50 (Diarrhoea activity): 35 mg/kg

Compound: COC(=O)C1=CCCN(C)C1 [Arecoline]
EC50 [3]: 0.331 µM
effect on patients having a memory defect [4]: positive effect
duration of action ([5]; in vivo): short duration of action
activity by oral route ([5]; oral route): very weak activity

EC50 [3, 16]: 0.525 µM
ED50 (Diarrhoea activity): 0.6 mg/kg
Compound: CON=CC1=CCCN(C)C1 [Example 1, 1-methyl-1,2,5,6-tetrahydropyridin-3-carboxyaldehyde-O-methyloxime hydrochloride]
ED (-1 C) [1, 17]: 0.14 mg/kg
ED (-1 C) [1, 18]: 0.46 mg/kg

Compound: CCON=CC1=CCCN(C)C1.Cl [Example 2, 1-methyl-1,2,5,6-tetrahydropyridin-3-carboxaldehyde-O-ethyloxime hydrochloride]
LD50 at 168 h (in vivo): 250 mg/kg
EC50 [3, 16]: > 1000 µM
IC50 [6]: 180 µM
ED (-1 C) [1, 17]: 11 mg/kg
ED (-1 C) [1, 18]: 13 mg/kg
ED50 (Diarrhoea activity): 50 mg/kg

Compound: CON=CC1=CCCNC1.Cl [Example 3, 1,2,5,6-tetrahydropyridin-3-carboxaldehyde-O-methyloxime Hydrochloride]
LD50 at 168 h (in vivo): 75 mg/kg
EC50 [3, 16]: 0.263 µM
ED (-1 C) [1, 17]: 0.12 mg/kg
ED (-1 C) [1, 18]: 0.11 mg/kg
variation of the body temperature [2, 7]: +0.1 °C
variation of the body temperature [2, 8]: -1,5 °C
variation of the body temperature [2, 9]: -0,8 °C
variation of the body temperature [2, 10]: -0,2 °C
variation of the body temperature [2, 12]: -1,2 °C
variation of the body temperature [2, 13]: -0,8 °C
variation of the body temperature [2, 14]: -0,2 °C
variation of the body temperature [2, 15]: -0,1 °C
ED50 (Diarrhoea activity): 0.15 mg/kg

Compound: CC(C)ON=CC1=CCCN(C)C1 [Example 4, O-isopropyl-N-methyl-1,2,5,6-tetrahydropyridin-3-carboxaldehyde oxime hydrochloride]
LD50 at 168 h (in vivo): 350 mg/kg
EC50 [3, 16]: > 1000 µM
IC50 [6]: 11 µM
ED (-1 C) [1, 18]: 40 mg/kg
ED50 (Diarrhoea activity): > 100 mg/kg

Compound: CC(=O)ON=CC1=CCCN(C)C1 [Example 5, 1-methyl-1,2,5,6-tetrahydropyridin-3-carboxaldehyde-0-acetyl-oxime]
LD50 at 168 h (in vivo): 500 mg/kg
EC50 [3, 16]: 51.3 µM
ED (-1 C) [1, 18]: 39 mg/kg
ED50 (Diarrhoea activity): > 100 mg/kg

Compound: CN(C)CCON=CC1=CCCN(C)C1 [Example 6, 3-[2-(N,N-dimethylaminoethoxyimino)-methyl]-1-methyl-1,2,5,6-tetrahydropyridine]
LD50 at 168 h (in vivo): 750 mg/kg
EC50 [3, 16]: 148 µM
ED (-1 C) [1, 18]: 135 mg/kg
ED50 (Diarrhoea activity): > 100 mg/kg

EC50 [3, 16]: > 1000 µM
IC50 [6]: 200 µM
ED50 (Diarrhoea activity): 10 mg/kg
Compound: CCN1CCC=C(C=NOC)C1.Cl [Example 7, 1-ethyl-1,2,5,6-tetrahydro-pyridin-3-carboxaldehyde-O-methyloxime hydrochloride]
ED (-1 C) [1, 17]: 1.16 mg/kg
ED (-1 C) [1, 18]: 0.97 mg/kg
variation of the body temperature [2, 8]: -1,1 °C
variation of the body temperature [2, 9]: -1,1 °C
variation of the body temperature [2, 10]: -0,6 °C
variation of the body temperature [2, 11]: -0,2 °C
variation of the body temperature [2, 12]: -0,5 °C
variation of the body temperature [2, 13]: -1,0 °C
variation of the body temperature [2, 14]: -0,6 °C
variation of the body temperature [2, 15]: -0,1 °C

Compound: CCCN1CCC=C(C=NOC)C1 [Example 8]
LD50 at 168 h (in vivo): 100 mg/kg
EC50 [3, 16]: 25.1 µM
ED (-1 C) [1, 17]: 0.83 mg/kg
ED (-1 C) [1, 18]: 0.34 mg/kg
variation of the body temperature [2, 8]: -1,5 °C
variation of the body temperature [2, 9]: -1,3 °C
variation of the body temperature [2, 10]: -0,4 °C
variation of the body temperature [2, 12]: -0,7 °C
variation of the body temperature [2, 13]: -1,2 °C
variation of the body temperature [2, 14]: -0,2 °C
variation of the body temperature [2, 15]: -0,1 °C
ED50 (Diarrhoea activity): 1.7 mg/kg

Compound: CCCCN1CCC=C(C=NOC)C1 [Example 9, 1-butyl-1,2,5,6-tetrahydropyridin-3-carboxaldehyde-O-methyloxime]
LD50 at 168 h (in vivo): 30 mg/kg
EC50 [3, 16]: > 1000 µM
IC50 [6]: 230 µM
ED (-1 C) [1, 17]: 0.85 mg/kg
ED (-1 C) [1, 18]: 0.79 mg/kg
ED50 (Diarrhoea activity): 3.5 mg/kg

Compound: C=CCN1CCC=C(C=NOC)C1 [Example 10, 1-allyl-1,2,5,6-tetrahydropyridin-3-carboxaldehyde-O-methyloxime]
LD50 at 168 h (in vivo): 175 mg/kg
EC50 [3, 16]: 15.8 µM
ED (-1 C) [1, 17]: 0.86 mg/kg
ED (-1 C) [1, 18]: 0.34 mg/kg
variation of the body temperature [2, 7]: -0,1 °C
variation of the body temperature [2, 8]: -1,5 °C
variation of the body temperature [2, 9]: -0,7 °C
variation of the body temperature [2, 10]: -0,1 °C
variation of the body temperature [2, 11]: +0,2 °C
variation of the body temperature [2, 12]: -0,8 °C
variation of the body temperature [2, 13]: -1,0 °C
variation of the body temperature [2, 14]: -0,1 °C
variation of the body temperature [2, 15]: +0,1 °C
ED50 (Diarrhoea activity): 1.2 mg/kg

Compound: CCCCCN1CCC=C(C=NOC)C1 [Example 11, 1-pentyl-1,2,5,6-tetrahydropyridin-3-carboxaldehyde-O-methyloxime]
LD50 at 168 h (in vivo): 175 mg/kg
EC50 [3, 16]: > 1000 µM
IC50 [6]: 160 µM
ED (-1 C) [1, 17]: 4 mg/kg
ED (-1 C) [1, 18]: 3 mg/kg
ED50 (Diarrhoea activity): 5 mg/kg

Compound: C#CCON=CC1=CCCN(C)C1 [Example 12, 1-methyl-1,2,5,6-tetrahydropyridin-3-carboxaldehyde-O-propargyloxime]
LD50 at 168 h (in vivo): 60 mg/kg
EC50 [3, 16]: 0.479 µM
ED (-1 C) [1, 17]: 0.63 mg/kg
ED (-1 C) [1, 18]: 2 mg/kg
ED50 (Diarrhoea activity): 5.5 mg/kg
